The values that follow come from PubChem BioAssay AID1645864 (Buhrlage Lab, Dana-Farber Cancer Institute and Novartis …, 2021).

Molecules are shown by their SMILES. pIC50: −log10 of the molar value. Active and inactive are the calls of the source.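 Rule for the calls: active = maximal inhibition of USP17 at or above 30% in the confirmation dose-response, a value not among the printed readouts; inactive = the rest.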

This assay deals with Ubiquitin carboxyl-terminal hydrolase 17-like protein 5 (Homo sapiens) (UniProt A8MUK1). Briefly: ubiquitin-specific protease 17 inhibitors, concentration series, biochemical, verification of primary actives (AID 1645864). As to conditions: purified USP17, ubiquitin-rhodamine cleavage fluorescence, 3 h.
Chain of Ubiquitin carboxyl-terminal hydrolase 17-like protein 5 (Homo sapiens) (A8MUK1 whole entry, looked up): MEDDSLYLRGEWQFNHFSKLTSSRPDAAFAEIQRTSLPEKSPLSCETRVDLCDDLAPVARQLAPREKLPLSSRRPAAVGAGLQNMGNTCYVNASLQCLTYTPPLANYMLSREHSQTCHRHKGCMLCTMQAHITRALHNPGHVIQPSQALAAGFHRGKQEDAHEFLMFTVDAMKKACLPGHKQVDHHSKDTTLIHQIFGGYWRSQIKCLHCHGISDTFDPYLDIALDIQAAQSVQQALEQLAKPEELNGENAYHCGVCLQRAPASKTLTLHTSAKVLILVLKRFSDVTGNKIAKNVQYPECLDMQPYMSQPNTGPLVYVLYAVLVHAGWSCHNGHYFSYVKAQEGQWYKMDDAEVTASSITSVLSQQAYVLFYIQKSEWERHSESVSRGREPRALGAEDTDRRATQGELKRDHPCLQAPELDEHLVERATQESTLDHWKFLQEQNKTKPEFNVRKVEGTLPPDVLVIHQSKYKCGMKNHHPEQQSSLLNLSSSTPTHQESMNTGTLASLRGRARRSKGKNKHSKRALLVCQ
As for `NS(=O)(=O)c1ccc(NS(=O)(=O)c2ccc(NC(=O)Nc3ccc(Cl)cc3)cc2)cc1`, the pIC50 is 4.42.

As to `COc1ccccc1S(=O)(=O)N1CC[C@@H]2CN(C)[C@@H]2C1`, the pIC50 is 4.49.

With `CS(=O)(=O)c1ccc(NC(=O)C2CN(c3nc4c(F)cccc4s3)C2)cc1`, the pIC50 was 4.44.

`Cc1ccc(Nc2nc(C(=O)NCc3ccc4c(c3)OCO4)cc3occc23)cc1Cl`: the pIC50 was 4.55.

For the compound `Cc1ccc(Nc2nc(O)c(CC(=O)Nc3ccccc3C)s2)cc1C`, the pIC50 is 4.75.

In the case of `CC1Oc2cc3c(-c4c(O)cc(O)c5c(O)c6c(cc45)OC(C)C(C)C6=O)c(O)cc(O)c3c(O)c2C(=O)C1C` (stereo not drawn), the pIC50 was 5.90.

As to `CCc1ccc2[nH]c3c(c(=O)c2c1)CN(CC(=O)NCc1ccc2c(c1)OCO2)CC3`, the negative logarithm of the IC50 (pIC50) is 4.55.

With `Cc1ccc(Cl)cc1NC(=O)COC(=O)c1ccc2ccccc2n1`, the IC50 was > 50 µM (inactive).

Take `O=C(COc1nc2ccccc2nc1N1CCOCC1)NC(c1ccccc1)c1ccccc1`: the IC50 was > 50 µM (inactive).

Take `CC1OC1C(=O)[C@]1(O)[C@H](C)[C@@H](O)[C@@]23O[C@@]2([C@H](O)c2c(O)cccc2C3=O)[C@H]1O` (stereo partly drawn): the negative logarithm of the IC50 (pIC50) is 4.75.

On to `CCCCn1c(=O)c(CCC(=O)OCC(=O)Nc2ccc3c(c2)OCCO3)nc2ccccc21`, for which the IC50 was > 5 µM (inactive).

With `Fc1ccc(Cn2ccc(-c3cnc(-c4ccccc4)s3)n2)cc1`, the IC50 was > 50 µM (inactive).

On to `O=C(CCCCn1c(=O)[nH]c2ccccc2c1=O)Nc1cccc(Cl)c1`, for which the pIC50 was 4.71.

With `CC(c1ccccc1)c1nc(-c2ccc(=O)[nH]c2)no1` (stereo not drawn), the IC50 is > 50 µM (inactive).

Take `Cc1ccc2nc(CCc3ccc(NS(=O)(=O)c4cccc(Cl)c4C)cc3)[nH]c2c1`: the IC50 was > 50 µM (inactive).

As to `CC(C)(C)N=C1Nc2ncccc2NC12CCCN(C(=O)c1ccccc1)C2` (stereo not drawn), the IC50 is > 50 µM (inactive).

For the compound `COc1ccccc1NC(=O)c1nn(-c2cccc(F)c2)c(OC)cc1=O`, the pIC50 is 4.36.

As to `Cc1cc(C(=O)N2CCOC3(CC=CCN(CCc4ccccc4)C3=O)C2)n2nccc2n1` (stereo not drawn), the IC50 is > 50 µM (inactive).

With `CCn1c(Cn2cccn2)nc2cc(NC(=O)c3ccc(F)cc3)ccc21`, the IC50 was > 50 µM (inactive).

Consider `CCOc1ccc(S(=O)(=O)Nc2ccc[nH]c2=O)cc1`, for which the IC50 is > 50 µM (inactive).

On to `Cc1ccc2cc(CNc3ccccc3)c(=O)n(CC(=O)Nc3ccccc3C)c2c1`, for which the negative-log IC50 (pIC50) was 5.04.

Take `Cc1c2c(nc3ccccc13)-c1ccccc1CC2`: the IC50 was > 50 µM (inactive).

As to `CC(CCc1ccccc1)NC(=O)C(=O)c1cn(CC(=O)N2CCOCC2)c2ccccc12` (stereo not drawn), the IC50 is > 50 µM (inactive).

Take `COc1ccc2nc(-c3ccc(NC(=O)c4cccc(OC)c4OC)cc3)cn2n1`: the negative-log IC50 (pIC50) was 5.67.

`COc1cc(=O)c(C(=O)Nc2ccc(C#N)cc2)nn1-c1cccc(F)c1`: the pIC50 was 4.54.

`COc1ccc(CCN2COc3c(cc(Cl)c4cccnc34)C2)cc1OC`: the pIC50 is 4.61.

Regarding `Cc1cc(C)cc(-n2ccnc(SCC(=O)Nc3cccc(Cl)c3)c2=O)c1`, the pIC50 was 4.55.

For `COC(=O)c1ccc2c(=O)n(CCCCCC(=O)NCCc3ccc(S(N)(=O)=O)cc3)c(=O)[nH]c2c1`, the negative-log IC50 (pIC50) is 5.29.

For the compound `CC(=O)c1ccccc1NC(=O)COc1ccc(-c2ccc(C#N)cc2)cc1`, the negative-log IC50 (pIC50) was 5.58.

With `Cc1ccc2c(c1)N(Cc1nc(-c3ccc(F)cc3)no1)C(=O)CO2`, the IC50 is > 50 µM (inactive).

Regarding `O=C(CN1C(=O)COc2ccc(Cl)cc21)Nc1cccc2ncccc12`, the IC50 is > 50 µM (inactive).

With `Cc1ccc(NC(=O)c2ccn(COc3ccc(F)cc3)n2)nc1`, the negative-log IC50 (pIC50) was 4.49.

Turning to `COc1cc(-c2nc(C(N)=O)c3[nH]c(=O)n(-c4ccc(C)cc4)c3n2)cc(OC)c1OC`, the negative-log IC50 (pIC50) is 5.71.

As for `Cc1cc(C#N)c2c(C)ccc(C(C)C)cc1-2`, the IC50 was > 50 µM (inactive).

Regarding `COc1ccc(C)cc1NC(=O)C1CC(=O)Nc2nc(SCc3ccccc3)nn21` (stereo not drawn), the negative logarithm of the IC50 (pIC50) was 4.72.

Regarding `Cc1sc(NC(=O)/C=C/c2ccco2)nc1-c1ccccc1`, the IC50 is > 50 µM (inactive).

As to `O=C(Nc1oc2ccccc2c(=O)c1-c1ccc2c(c1)OCO2)C1CCCCC1`, the pIC50 was 4.52.

For the compound `CSc1ccc(CNC(=O)CC2CCN(S(=O)(=O)c3ccc(C)cc3)CC2)cc1`, the pIC50 was 4.62.

As for `Cc1ccc(C)c(-n2c(C)cc(/C=C3/C(=N)N4C(c5ccc(F)cc5)=CSC4=NC3=O)c2C)c1`, the IC50 is > 50 µM (inactive).

Consider `O=C(COc1ccc2c(c1)CCC2)Nc1ccc2c(c1)CCC2`, for which the negative-log IC50 (pIC50) was 4.72.

Regarding `C=C1CCC2[C@](C)(CCC[C@]2(C)C(=O)OC)[C@H]1CCc1ccoc1C[N+](C)(C)Cc1ccccc1` (stereo partly drawn), the IC50 is > 50 µM (inactive).

In the case of `Cc1ccc2c(c1)-c1c(c(C(=O)N3CCN(c4ccccc4)CC3)nn1C)CS2`, the IC50 is > 50 µM (inactive).

As to `O=C(Nc1cc(F)c2nc(N3CCOCC3)ccc2c1)C1CC1`, the pIC50 was 5.13.

As to `O=C(Nc1ccccc1)C1CCCN(C(=O)c2cc3ccccc3[nH]2)C1` (stereo not drawn), the pIC50 was 4.41.

As for `COCCNC(=O)c1ccn(-c2ccc3ccc(-c4ccncc4)cn23)n1`, the IC50 is > 50 µM (inactive).

For the compound `O=[N+]([O-])c1ccccc1C(c1c[nH]c2ccccc12)c1c[nH]c2ccccc12`, the pIC50 is 4.61.

Regarding `Cc1ccc(C)c(-n2c(N)c(C(=O)NCCc3ccccc3)c3nc4ccccc4nc32)c1`, the IC50 was > 50 µM (inactive).

`CSc1cccc(NC(=O)COc2cccc3ccccc23)c1`: the negative logarithm of the IC50 (pIC50) is 5.69.

On to `COc1cccc(/C=C/C(=O)Nc2ccc(N3CCOCC3)cc2)c1OC`, for which the IC50 was > 50 µM (inactive).

On to `O=C(Cc1cccnc1)Nc1ccc(N2CCN(C3CCCCC3)C2=O)nc1`, for which the IC50 was > 50 µM (inactive).

On to `COc1ccc(C(=O)Nc2ccc3c(c2)Sc2ncccc2C(=O)N3C)cn1`, for which the IC50 is > 50 µM (inactive).

`COc1cc(Cn2cnc3c([nH]c4ccc(Br)cc43)c2=O)cc(OC)c1`: the negative logarithm of the IC50 (pIC50) is 5.43.

For `Cn1c(COc2ccccc2)nnc1SCC(=O)Nc1ccc(N2CCOCC2)cc1`, the negative logarithm of the IC50 (pIC50) is 4.62.

As to `CC1(O)CC(=O)c2c(cc3cc(O)cc(O)c3c2O)C1` (stereo not drawn), the pIC50 is 6.94.

In the case of `COC(=O)c1ccc(Cn2cnc3ccc(Br)cc3c2=O)o1`, the IC50 was > 50 µM (inactive).

In the case of `c1ccc(Cc2nn3c(-c4cccnc4)nnc3c3ccccc23)cc1`, the pIC50 is 6.38.

As to `Cc1ccc(NC(=O)CSc2nc3c(cc2C#N)C(=O)CCC3)cc1`, the pIC50 is 4.53.

Regarding `COc1ccc(NC(=O)C2Oc3ccc(C)cc3NC2=O)cc1Cl` (stereo not drawn), the pIC50 is 4.84.

With `O=C(Nc1ccc2c(c1)OCCO2)c1cc(CN2CCOCC2)on1`, the IC50 is > 50 µM (inactive).

In the case of `CSc1cccc(C(=O)Nc2ccc(-c3nc4ccccc4[nH]3)cc2)c1`, the pIC50 is 5.02.

As to `Cc1nc(C(=O)Nc2cccc(Cl)c2Cl)nn1-c1cc(Cl)cc(Cl)c1`, the negative logarithm of the IC50 (pIC50) is 6.87.

On to `O=C(Nc1cccc(S(=O)(=O)N2CCCC2)c1)c1ccc2c(=O)n3c(nc2c1)CCCCC3`, for which the IC50 was > 50 µM (inactive).

In the case of `O=S(=O)(c1ccccc1)N1CCN2Cc3ccccc3N(Cc3ccccc3)CC2C1` (stereo not drawn), the IC50 was > 50 µM (inactive).

One may read the pIC50 as −log10 of the IC50, conventionally taken in molar units. Usually IC50 stands for the concentration that inhibits the measured activity by half.
